Test results: the CheMixHub ionic liquid set

Experiment: xn = mol fraction of the nth substance listed

O=S(=O)([O-])[O-].[Na+].[Na+] + CCCCCCCCCCCC[N+](C)(C)C.[Br-] + O
298.15 K, 101 kPa
Settings	electrical conductivity [S/m]
x2 = 0, x1 = 0.0001802	0.219
x2 = 0, x1 = 0.001799	1.527
x2 = 1.98e-06, x1 = 0.0001802	0.2192
x2 = 4.2e-06, x1 = 0.001799	1.523
x2 = 6.31e-06, x1 = 0.0001802	0.2208
x2 = 1.064e-05, x1 = 0.0001802	0.2225
x2 = 1.241e-05, x1 = 0.001799	1.523
x2 = 1.516e-05, x1 = 0.0001802	0.2243
x2 = 2.061e-05, x1 = 0.001799	1.525
x2 = 2.201e-05, x1 = 0.0001802	0.2272
x2 = 2.882e-05, x1 = 0.001799	1.526
x2 = 3.067e-05, x1 = 0.0001802	0.231
x2 = 3.667e-05, x1 = 0.001799	1.528
x2 = 3.951e-05, x1 = 0.0001802	0.2348
x2 = 4.451e-05, x1 = 0.001799	1.531
x2 = 5.088e-05, x1 = 0.0001802	0.2397
x2 = 5.235e-05, x1 = 0.001799	1.533
x2 = 6.188e-05, x1 = 0.0001802	0.2448
x2 = 6.221e-05, x1 = 0.001799	1.536
x2 = 6.932e-05, x1 = 0.001799	1.538
x2 = 7.271e-05, x1 = 0.0001801	0.2498
x2 = 7.662e-05, x1 = 0.001799	1.54
x2 = 8.353e-05, x1 = 0.0001801	0.2543
x2 = 8.391e-05, x1 = 0.001799	1.542
x2 = 9.048e-05, x1 = 0.001799	1.544
x2 = 9.435e-05, x1 = 0.0001801	0.2592
x2 = 9.741e-05, x1 = 0.001799	1.546
x2 = 0.0001038, x1 = 0.001799	1.548
x2 = 0.0001048, x1 = 0.0001801	0.2637
x2 = 0.0001104, x1 = 0.001799	1.55
x2 = 0.0001153, x1 = 0.0001801	0.2682
x2 = 0.0001173, x1 = 0.001799	1.553
x2 = 0.0001239, x1 = 0.001799	1.556
x2 = 0.0001257, x1 = 0.0001801	0.2729
x2 = 0.0001315, x1 = 0.001799	1.56
x2 = 0.0001364, x1 = 0.0001801	0.2774
x2 = 0.0001404, x1 = 0.001799	1.563
x2 = 0.0001467, x1 = 0.0001801	0.2821
x2 = 0.0001478, x1 = 0.001798	1.565
x2 = 0.0001549, x1 = 0.001798	1.567
x2 = 0.0001569, x1 = 0.0001801	0.2866
x2 = 0.0001623, x1 = 0.001798	1.569
x2 = 0.0001672, x1 = 0.0001801	0.2912
x2 = 0.0001702, x1 = 0.001798	1.571
x2 = 0.0001775, x1 = 0.0001801	0.2956
x2 = 0.0001777, x1 = 0.001798	1.573
x2 = 0.0001851, x1 = 0.001798	1.575
x2 = 0.0001876, x1 = 0.0001801	0.3
x2 = 0.000193, x1 = 0.001798	1.577
x2 = 0.0001975, x1 = 0.0001801	0.3042
x2 = 0.0001997, x1 = 0.001798	1.579
x2 = 0.0002074, x1 = 0.001798	1.58
x2 = 0.0002076, x1 = 0.0001801	0.308
x2 = 0.000215, x1 = 0.001798	1.582
x2 = 0.0002175, x1 = 0.0001801	0.311
x2 = 0.000222, x1 = 0.001798	1.584
x2 = 0.0002275, x1 = 0.0001801	0.3132
x2 = 0.0002287, x1 = 0.001798	1.586
x2 = 0.0002358, x1 = 0.001798	1.588
x2 = 0.0002368, x1 = 0.0001801	0.3149
x2 = 0.0002431, x1 = 0.001798	1.589
x2 = 0.0002466, x1 = 0.0001801	0.3165
x2 = 0.0002504, x1 = 0.001798	1.591
x2 = 0.0002565, x1 = 0.0001801	0.3178
x2 = 0.0002612, x1 = 0.001798	1.594
x2 = 0.000266, x1 = 0.0001801	0.3191
x2 = 0.0002739, x1 = 0.001798	1.597
x2 = 0.0002776, x1 = 0.0001801	0.3205
x2 = 0.0002909, x1 = 0.0001801	0.322
x2 = 0.0003061, x1 = 0.0001801	0.3238
x2 = 0.0003232, x1 = 0.0001801	0.3257
x2 = 0.0003423, x1 = 0.0001801	0.3278
x2 = 0.0003636, x1 = 0.0001801	0.3305
x2 = 0.0003892, x1 = 0.0001801	0.3335

CC(C)C[C@H](N)C(=O)O + CCCCCCCCCCCC[N+](C)(C)Cc1ccccc1.[Cl-] + O
101 kPa, x1 = 0.00893, x2 = 0
Settings	electrical conductivity [S/m]
293.15 K	0.00107
298.15 K	0.00125
303.15 K	0.00136
308.15 K	0.00152
313.15 K	0.00168

CC(C)[C@H](N)C(=O)O + CCCCCCCCCCCC[N+](C)(C)Cc1ccccc1.[Cl-] + O
electrical conductivity [S/m], 101 kPa
Settings	293.15 K	298.15 K	303.15 K	308.15 K	313.15 K
x1 = 0.0008894, x2 = 0	0.000591	0.000675	0.000763	0.000854	0.000953
x1 = 0.001757, x2 = 0	0.00102	0.00116	0.00131	0.00147	0.00164

CCCCCCCCC(=O)O + CCCCCCCC[N+](CCCCCCCC)(CCCCCCCC)CCCCCCCC.[Br-]
Settings	electrical conductivity [S/m]
298.1 K, 100 kPa, x2 = 0.333	4.5e-06

c1ccncc1 + CCCCCCCC[n+]1ccc2ccccc2c1.O=S(=O)([N-]S(=O)(=O)C(F)(F)F)C(F)(F)F
Settings	viscosity [mPa·s]
338.15 K, 101 kPa, x1 = 1	0.54
